Test results from ChEMBL document CHEMBL1201862, “PubChem BioAssay data set” (2004).
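96-well plates; 48 h exposure; 5 concentrations. Endpoints by linear interpolation between flanking doses. Not reached: highest tested concentration assigned. GI50 marks 50% less growth.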 The source made the active and inactive calls. Rule as the data show it: active = GI50 up to about 1.1 µM and inactive = higher.

Assays:
Assay in all cases: inhibition of tumour cell growth, NCI panel, 48 h
[1] = system: BT-549
[2] = system: DLD-1
[3] = system: DMS-114
[4] = system: KM-20L2
[5] = system: LXFL 529
[6] = system: SNB-78
[7] = system: XF498
[8] = system: HOP-18

Compound | GI50 [1] | GI50 [2] | GI50 [4] | GI50 [7] | other results
CCCCCNC(=O)OC1CCn2c1nc1c2C(=O)C(C)=C(N2CC2)C1=O (stereo not drawn) | 1.67 µM (inactive) |  |  |  | 
N=C1CSC2=NC3=C(CCC/C3=C\c3ccccc3)C(c3ccccc3)N12 (stereo not drawn) |  | 5.4 µM (inactive) | 4.37 µM (inactive) | 20.7 µM (inactive) | GI50 [3]: 2.8 µM (inactive); GI50 [5]: 4.89 µM (inactive); GI50 [6]: 5.77 µM (inactive)
CC1=N[C@@](C)(C2CC3C=CC2C3=O)COC1=O (stereo partly drawn) | > 100 µM (inactive) |  |  |  | 
O=C1C=CC(=O)c2c1ccc1c3ccccc3n(CCCCCCCCn3c4ccccc4c4ccc5c(c43)C(=O)C=CC5=O)c21 | > 100 µM (inactive) |  |  |  | 
COC[C@@H](/N=C/c1ccc(OC)cc1)C(C)C | > 100 µM (inactive) |  |  |  | 
O=S(=O)(CC1=NC2C=CC=CC2N=C1)NCc1ccccc1 (stereo not drawn) |  | > 100 µM (inactive) | > 100 µM (inactive) | 24.3 µM (inactive) | GI50 [8]: > 100 µM (inactive); GI50 [5]: > 100 µM (inactive)
COc1ccc2c(C)cc(N/N=C/c3ccc(C)s3)nc2c1 | 24.3 µM (inactive) |  |  |  | 
Cc1cnc2[nH]c(-c3ccccc3)cc(=O)c2c1 | 0.0306 µM (active) |  |  |  | 
COc1cc(C2C(Cl)C(=O)N2NC(=O)c2ccc(NC(C)=O)cc2)ccc1O (stereo not drawn) |  | > 100 µM (inactive) | > 100 µM (inactive) | > 100 µM (inactive) | GI50 [3]: > 100 µM (inactive); GI50 [5]: > 100 µM (inactive); GI50 [6]: > 100 µM (inactive)
CCOC(=O)NC(C(=O)OCC)(N1CCN(c2cc3c(cc2F)c(=O)c(C(=O)O)cn3CC)CC1)C(F)(F)F (stereo not drawn) | > 100 µM (inactive) |  |  |  | 
C=CCN1C[C@H](C)N([C@@H](c2ccc(C(=O)N3CCCCC3)cc2)c2cccc(OC)c2)C[C@H]1C | 32.9 µM (inactive) |  |  |  | 
COc1cc(/C=C/c2sc3ccccc3[n+]2C)ccc1N(C)C | 0.368 µM (active) |  |  |  | 
CC(=O)OCC1OC(NC(=S)Nn2c(-c3ccccc3)nc3ccccc3c2=O)C(OC(C)=O)C(OC(C)=O)C1OC(C)=O (stereo not drawn) | > 100 µM (inactive) |  |  |  | 
O=S1(=O)OCCOS(=O)(=O)C1(Br)Cc1ccccc1 |  | > 100 µM (inactive) | > 100 µM (inactive) | > 100 µM (inactive) | GI50 [3]: > 100 µM (inactive); GI50 [5]: > 100 µM (inactive); GI50 [6]: > 100 µM (inactive)
CC1=CC(=O)N2C(OC[C@@H]2c2ccccc2)O1 (stereo partly drawn) |  | > 100 µM (inactive) | > 100 µM (inactive) | > 100 µM (inactive) | GI50 [8]: 20.7 µM (inactive); GI50 [5]: > 100 µM (inactive)
c1ccc(CCCCNCc2cc(CNCCCCc3ccccc3)cc(CNCCCCc3ccccc3)c2)cc1 | 1.63 µM (inactive) |  |  |  | 
Cc1ccnc2nc(-c3ccc4ccccc4c3)cc(O)c12 | 5.32 µM (inactive) |  |  |  | 
C=CN1CCN(c2ccccc2)P1(=O)Oc1ccccc1 (stereo not drawn) | > 100 µM (inactive) |  |  |  | 
COC(=O)[C@@H]1[C@H](O)[C@H](C)[C@H](O)[C@H](C)/C=C\C=C(\C)C(=O)Nc2c(C)c(OC(C)=O)c3c(c2O)C(=O)C(C)=C2OCOC(=C23)/C(C)=C/[C@@H](O)[C@H](O)[C@@H](C)[C@H]1OC(C)=O | > 100 µM (inactive) |  |  |  | 
CN(C)c1ccccc1CC(c1c[nH]c2ccccc12)c1c[nH]c2ccccc12 |  | 15.7 µM (inactive) | 10.7 µM (inactive) | 17.3 µM (inactive) | GI50 [3]: 7.62 µM (inactive); GI50 [6]: 14.4 µM (inactive)
c1cc2ccc1C1NCCCN1CCN1CCCNC1c1ccc(cc1)C1NCCCN1CCN1CCCNC21 (stereo not drawn) |  | > 100 µM (inactive) | > 100 µM (inactive) | > 100 µM (inactive) | GI50 [3]: > 100 µM (inactive); GI50 [8]: > 100 µM (inactive); GI50 [5]: 78.7 µM (inactive)
